Data: US9345245B2, “Synthetic compounds for vegetative ABA responses” (THE REGENTS OF THE UNIVERSITY OF CALIFORNIA, priority 2012, dated 2016)

What was measured:
PYL5 = biological target: T1, PYL5 (Arabidopsis thaliana, UniProt Q9FLB1); test: Receptor-mediated PP2C inhibition assay, receptor PYL5; format: biochemical
T1 construct: 6xHis (N); made in house; BL21[DE3]pLysS for the GST-PP2Cs
T1 sequence (Q9FLB1 1-203): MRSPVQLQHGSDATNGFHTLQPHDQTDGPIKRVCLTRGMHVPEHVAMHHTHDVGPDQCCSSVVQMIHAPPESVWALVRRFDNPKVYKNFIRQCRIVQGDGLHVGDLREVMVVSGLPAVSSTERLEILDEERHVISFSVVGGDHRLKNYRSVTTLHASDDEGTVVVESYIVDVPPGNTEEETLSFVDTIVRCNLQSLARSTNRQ
T1 sequence (Q9CAJ0 23-511 partner): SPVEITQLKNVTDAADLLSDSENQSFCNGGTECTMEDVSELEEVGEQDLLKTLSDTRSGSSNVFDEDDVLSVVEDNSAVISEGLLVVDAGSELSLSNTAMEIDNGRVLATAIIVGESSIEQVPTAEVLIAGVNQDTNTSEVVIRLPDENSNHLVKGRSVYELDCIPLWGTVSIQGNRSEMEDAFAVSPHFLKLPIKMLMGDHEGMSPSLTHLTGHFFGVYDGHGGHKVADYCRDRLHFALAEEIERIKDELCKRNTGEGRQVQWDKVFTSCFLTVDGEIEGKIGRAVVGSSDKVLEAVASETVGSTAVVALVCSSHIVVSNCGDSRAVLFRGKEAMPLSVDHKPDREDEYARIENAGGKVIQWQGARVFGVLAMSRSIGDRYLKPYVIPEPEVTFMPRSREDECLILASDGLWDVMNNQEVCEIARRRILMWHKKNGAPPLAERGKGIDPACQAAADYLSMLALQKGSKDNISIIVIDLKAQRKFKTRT
Method: HAB1 and PYL proteins were expressed and purified as described previously (Park S Y, et al. (2009) Abscisic Acid Inhibits Type 2C Protein Phosphatases via the PYR/PYL Family of START Proteins. Science 324(5930):1068-1071), with minor modifications. To obtain GST-HAB1, -ABI1 and -ABI2 fusion proteins, the HAB1 cDNA was cloned into pGex-2T whereas ABI1 and ABI2 cDNAs were cloned into the vector pGex-4T-1. Expression was conducted in BL21[DE3]pLysS host cells. Transformed cells were pre-cultured overnight, transferred to LB medium and cultured at 30° C. to culture A600 of ˜0.5. The culture was then cooled on ice and MnCl2 added to 4 mM and IPTG added to 0.3 mM. After 16 hours incubation at 15° C., cells were harvested and recombinant proteins were purified on glutathione agarose as described previously (Park S Y, et al. (2009). To obtain 6×His-PYL receptor fusion proteins, receptor cDNAs for all 13 ABA receptors were cloned into the vector pET28 and expressed and purified as described previously (Mosquna A, et al. (2011) Potent and selective activation of abscisic acid receptors in vivo by mutational stabilization of their agonist-bound conformation. PNAS 108(51):20838-20843); this yielded soluble and functional protein (assessed using receptor-mediated PP2C inhibition assays) for all receptors except PYL7, PYL11 and PYL12. […]

[1] = system: Physcomitrella patens protonema; test: Protonema growth of moss; format: in vivo; settings: 200 μM, 10 days
Method: (§1) FIG. 17. The effect of ABA and its agonists in Physcomitrella patens and Chlamydomonas. Protonemal growth images (A) and quantitative analysis (B) of the effects of ABA and agonists on Phsycomitrella patens. Protonema were grown on 200 μM of specific test chemical for 10 days. […] Pyrabactin bleached protonema. (C) The expression of ABA-responsive genes of Physcomitrella patens. Protonema were treated with 200 μM chemical solutions for 3 h. (D) Colony growth of Chlamydomonas on the chemical with salinity stress and osmotic stress. There was no effect of ABA and LC66C6 on the Chlamydomonas growth with and without stresses.

ABA-responsive genes [2] = settings: higher concentrations; Park et al., 2009; cited from earlier work
ABA-responsive genes [3] = test: ATH1 microarray analysis of seedlings; format: in vivo, Arabidopsis; settings: wild-type seedlings; 25 μM
Method: FIG. 9. LC66C6 induces numerous ABA-responsive genes. […] Ten-day old seedlings were treated with carrier solvent (DMSO) or either 25 μM ABA, pyrabactin or LC66C6 for 8 hours. Total RNA was then prepared labeled and hybridized to ATH1 microarrays. Data plotted are log 2 transformed average expression values for ˜13K probes that were detectable across all experiments. Data shown are averages determined from triplicate biological replicates. (C) and (D) show the expression of a reporter gene in different plant tissues after treatment with vehicle (DMSO), pyrabactin, LC66C6, or (+)-ABA.
Total RNA was isolated using RNAeasy Plant Mini Kit (Qiagen, USA) according to the manufacturer's instructions. cDNA synthesis, labeling and hybridization to the Arabidopsis ATH1 chips (Affymetrix, USA) were performed by the IIGB Core Instrumentation Facility of University of California at Riverside using Affymetrix protocols. Biological triplicate samples were hybridized for DMSO controls, ABA, pyrabactin and quinabactin treatments; compound were applied at 25 μM final concentration and RNA prepared from frozen tissue after 6 hours exposure to compounds or controls. Expression signals for probe sets were calculated and normalized by MASS Statistical Algorithm (Affymetrix, USA). Experimental filtering of array data was performed for the presence of signal in all experiments. […]

Chlamydomonas = test: Colony growth of Chlamydomonas with and without salinity and osmotic stress; format: in vivo; settings: in vivo
Method: as §1

O=S(=O)(NCc1ccccn1)c1ccc(Br)c2ccccc12 [pyrabactin]
PP2C inhibition at saturation (PYL5; maximal (saturating) inhibition): ~40% | IC50 (PYL5; read-out: IC50 (activation of PYL5)): 900 nM | bleaching of protonema (toxicity) [1]: bleached the protonema | ABA-related gene expression in seedlings (ABA-responsive genes [2]): induce modest ABA-related gene expression | genome-wide gene expression pattern compared with ABA (ABA-responsive genes [3]): did not induce an expression pattern similar to that of ABA | bleaching of Chlamydomonas (toxicity) (Chlamydomonas): bleached the Chlamydomonas
